Test results taken from the supplement of paper PMC10307832.

Experiments:
Assay in all cases: relative viability (nuclei count vs DMSO), 5 days (fraction); higher = more cells survive
NCI-H1666 = system: NCI-H1666
In short: (§1)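 Values are medians from duplicate plates. Each reflects relative viability, defined as the nuclei count of treated wells over that of vehicle wells. Lung cancer cell lines in 1536-well plates were pin-tool dosed one day after seeding with one drug alone or with a fixed anchor-drug dose plus five library-drug doses (not always all listed) in √10 steps, then fixed, stained and imaged at 4× after 5 days.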

COR-L 105 = system: COR-L 105
In short: as §1

EKVX = system: EKVX
In short: as §1

LCLC-97TM1 = system: LCLC-97TM1
In short: as §1

NCI-H650 = system: NCI-H650
In short: as §1

NCI-H2085 = system: NCI-H2085
In short: as §1

NCI-H1437 = system: NCI-H1437
In short: as §1

SW 1573 = system: SW 1573
In short: as §1

NCI-H2342 = system: NCI-H2342
In short: as §1

LOU-NH91 = system: LOU-NH91
In short: as §1

NCI-H2087 = system: NCI-H2087
In short: as §1

LU99A = system: LU99A
In short: as §1

H3255 = system: H3255
In short: as §1

NCI-H2170 = system: NCI-H2170
In short: as §1

HCC-827 = system: HCC-827
In short: as §1

HCC-44 = system: HCC-44
In short: as §1

NCI-H647 = system: NCI-H647
In short: as §1

201T = system: 201T
In short: as §1

EPLC-272H = system: EPLC-272H
In short: as §1

BEN = system: BEN
In short: as §1

NCI-H1975 = system: NCI-H1975
In short: as §1

PC-3 [JPC-3] = system: PC-3 [JPC-3]
In short: as §1

Question: What does the source list for CC(=O)O[C@@]12CO[C@@H]1C[C@H](O)[C@@]1(C)C(=O)[C@H](O)C3=C(C)[C@@H](OC(=O)[C@H](O)[C@@H](NC(=O)OC(C)(C)C)c4ccccc4)C[C@@](O)([C@@H](OC(=O)c4ccccc4)[C@H]21)C3(C)C [Docetaxel] + CCNC(=O)c1noc(-c2cc(C(C)C)c(O)cc2O)c1-c1ccc(CN2CCOCC2)cc1 [Luminespib] (partner 0.01 µM)?
Answer: relative viability (NCI-H1666; first compound 0.0002 µM): 0.943; relative viability (NCI-H1666; first compound 0.000632 µM): 0.776; relative viability (NCI-H1666; first compound 0.002 µM): 0.623; relative viability (NCI-H1666; first compound 0.006325 µM): 0.512; relative viability (NCI-H1666; first compound 0.02 µM): 0.374; relative viability (COR-L 105; first compound 0.0002 µM): 0.99; relative viability (COR-L 105; first compound 0.000632 µM): 0.713; relative viability (COR-L 105; first compound 0.002 µM): 0.531; relative viability (COR-L 105; first compound 0.006325 µM): 0.595; relative viability (COR-L 105; first compound 0.02 µM): 0.305; relative viability (EKVX; first compound 0.0002 µM): 0.85; relative viability (EKVX; first compound 0.000632 µM): 0.795; relative viability (EKVX; first compound 0.002 µM): 0.45; relative viability (EKVX; first compound 0.006325 µM): 0.305; relative viability (EKVX; first compound 0.02 µM): 0.161; relative viability (LCLC-97TM1; first compound 0.0002 µM): 0.71; relative viability (LCLC-97TM1; first compound 0.000632 µM): 0.622; relative viability (LCLC-97TM1; first compound 0.002 µM): 0.548; relative viability (LCLC-97TM1; first compound 0.006325 µM): 0.167; relative viability (LCLC-97TM1; first compound 0.02 µM): 0.106; relative viability (NCI-H650; first compound 0.0002 µM): 0.796; relative viability (NCI-H650; first compound 0.000632 µM): 0.519; relative viability (NCI-H650; first compound 0.002 µM): 0.212; relative viability (NCI-H650; first compound 0.006325 µM): 0.18; relative viability (NCI-H650; first compound 0.02 µM): 0.111; relative viability (NCI-H2085; first compound 0.0002 µM): 0.378; relative viability (NCI-H2085; first compound 0.000632 µM): 0.454; relative viability (NCI-H2085; first compound 0.002 µM): 0.446; relative viability (NCI-H2085; first compound 0.006325 µM): 0.322; relative viability (NCI-H2085; first compound 0.02 µM): 0.341; relative viability (NCI-H1437; first compound 0.0002 µM): 1.07; relative viability (NCI-H1437; first compound 0.000632 µM): 1.09; relative viability (NCI-H1437; first compound 0.002 µM): 0.277; relative viability (NCI-H1437; first compound 0.006325 µM): 0.234; relative viability (NCI-H1437; first compound 0.02 µM): 0.167; relative viability (SW 1573; first compound 0.0002 µM): 0.165; relative viability (SW 1573; first compound 0.000632 µM): 0.211; relative viability (SW 1573; first compound 0.002 µM): 0.0935; relative viability (SW 1573; first compound 0.006325 µM): 0.137; relative viability (SW 1573; first compound 0.02 µM): 0.0617; relative viability (NCI-H2342; first compound 0.0002 µM): 0.673; relative viability (NCI-H2342; first compound 0.000632 µM): 0.677; relative viability (NCI-H2342; first compound 0.002 µM): 0.673; relative viability (NCI-H2342; first compound 0.006325 µM): 0.462; relative viability (NCI-H2342; first compound 0.02 µM): 0.4; relative viability (LOU-NH91; first compound 0.0002 µM): 0.299; relative viability (LOU-NH91; first compound 0.000632 µM): 0.384; relative viability (LOU-NH91; first compound 0.002 µM): 0.299; relative viability (LOU-NH91; first compound 0.006325 µM): 0.266; relative viability (LOU-NH91; first compound 0.02 µM): 0.212; relative viability (NCI-H2087; first compound 0.0002 µM): 0.166; relative viability (NCI-H2087; first compound 0.000632 µM): 0.189; relative viability (NCI-H2087; first compound 0.002 µM): 0.147; relative viability (NCI-H2087; first compound 0.006325 µM): 0.168; relative viability (NCI-H2087; first compound 0.02 µM): 0.124; relative viability (LU99A; first compound 0.0002 µM): 0.218; relative viability (LU99A; first compound 0.000632 µM): 0.245; relative viability (LU99A; first compound 0.002 µM): 0.23; relative viability (LU99A; first compound 0.006325 µM): 0.193; relative viability (LU99A; first compound 0.02 µM): 0.2; relative viability (H3255; first compound 0.0002 µM): 0.907; relative viability (H3255; first compound 0.000632 µM): 1.12; relative viability (H3255; first compound 0.002 µM): 0.755; relative viability (H3255; first compound 0.006325 µM): 0.157; relative viability (H3255; first compound 0.02 µM): 0.309; relative viability (NCI-H2170; first compound 0.0002 µM): 0.726; relative viability (NCI-H2170; first compound 0.000632 µM): 0.704; relative viability (NCI-H2170; first compound 0.002 µM): 0.451; relative viability (NCI-H2170; first compound 0.006325 µM): 0.261; relative viability (NCI-H2170; first compound 0.02 µM): 0.148; relative viability (HCC-827; first compound 0.0002 µM): 0.588; relative viability (HCC-827; first compound 0.000632 µM): 0.67; relative viability (HCC-827; first compound 0.002 µM): 0.244; relative viability (HCC-827; first compound 0.006325 µM): 0.159; relative viability (HCC-827; first compound 0.02 µM): 0.142; relative viability (HCC-44; first compound 0.0002 µM): 0.986; relative viability (HCC-44; first compound 0.000632 µM): 0.901; relative viability (HCC-44; first compound 0.002 µM): 0.35; relative viability (HCC-44; first compound 0.006325 µM): 0.289; relative viability (HCC-44; first compound 0.02 µM): 0.171; relative viability (NCI-H647; first compound 0.0002 µM): 0.112; relative viability (NCI-H647; first compound 0.000632 µM): 0.126; relative viability (NCI-H647; first compound 0.002 µM): 0.147; relative viability (NCI-H647; first compound 0.006325 µM): 0.12; relative viability (NCI-H647; first compound 0.02 µM): 0.0798; relative viability (201T; first compound 0.0002 µM): 1.08; relative viability (201T; first compound 0.000632 µM): 0.907; relative viability (201T; first compound 0.002 µM): 0.8; relative viability (201T; first compound 0.006325 µM): 0.485; relative viability (201T; first compound 0.02 µM): 0.302; relative viability (EPLC-272H; first compound 0.0002 µM): 0.133; relative viability (EPLC-272H; first compound 0.000632 µM): 0.316; relative viability (EPLC-272H; first compound 0.002 µM): 0.205; relative viability (EPLC-272H; first compound 0.006325 µM): 0.0836; relative viability (EPLC-272H; first compound 0.02 µM): 0.119; relative viability (BEN; first compound 0.0002 µM): 0.0838; relative viability (BEN; first compound 0.000632 µM): 0.377; relative viability (BEN; first compound 0.002 µM): 0.373; relative viability (BEN; first compound 0.006325 µM): 0.172; relative viability (BEN; first compound 0.02 µM): 0.116; relative viability (NCI-H1975; first compound 0.0002 µM): 0.364; relative viability (NCI-H1975; first compound 0.000632 µM): 0.24; relative viability (NCI-H1975; first compound 0.002 µM): 0.272; relative viability (NCI-H1975; first compound 0.006325 µM): 0.155; relative viability (NCI-H1975; first compound 0.02 µM): 0.181; relative viability (PC-3 [JPC-3]; first compound 0.0002 µM): 0.678; relative viability (PC-3 [JPC-3]; first compound 0.000632 µM): 0.684; relative viability (PC-3 [JPC-3]; first compound 0.002 µM): 0.5; relative viability (PC-3 [JPC-3]; first compound 0.006325 µM): 0.223; relative viability (PC-3 [JPC-3]; first compound 0.02 µM): 0.141
